Data: ChEMBL document CHEMBL1201862, “PubChem BioAssay data set” (2004)
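How tested: cells in 96-well plates exposed to compound for 48 hours at five concentrations. The concentration for 50% growth inhibition is given as GI50.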 The source made the active and inactive calls. No stated cut-off is given here; in the data, active = GI50 up to about 1.1 µM and inactive = higher.

Tests used:
Assay in all cases: inhibition of tumour cell growth, NCI panel, 48 h
[1] = system: UO-31
[2] = system: MDA-MB-231
[3] = system: SNB-19
[4] = system: OVCAR-5
[5] = system: SK-MEL-28
[6] = system: KM12
[7] = system: U-251
[8] = system: SK-MEL-5
[9] = system: SN12C
[10] = system: NCI/ADR-RES
[11] = system: OVCAR-4
[12] = system: RXF 393
[13] = system: CAKI-1
[14] = system: HOP-92
[15] = system: T47D
[16] = system: UACC-62
[17] = system: NCI-H522
[18] = system: MCF7
[19] = system: COLO 205
[20] = system: HCC 2998
[21] = system: RPMI-8226
[22] = system: SF-268
[23] = system: OVCAR-8
[24] = system: SNB-75
[25] = system: HT-29
[26] = system: HCT-15
[27] = system: NCI-H23
[28] = system: NCI-H226
[29] = system: HCT-116
[30] = system: SF-539
[31] = system: 786-0
[32] = system: HL-60
[33] = system: HOP-62
[34] = system: LOX IMVI
[35] = system: SK-OV-3
[36] = system: UACC-257
[37] = system: IGROV-1
[38] = system: M14
[39] = system: SR
[40] = system: OVCAR-3
[41] = system: SF-295
[42] = system: NCI-H460
[43] = system: SK-MEL-2
[44] = system: Hs-578T
[45] = system: MOLT-4
[46] = system: SW-620
[47] = system: A498
[48] = system: ACHN
[49] = system: CCRF-CEM
[50] = system: TK-10
[51] = system: MDA-N
[52] = system: Malme-3M
[53] = system: BT-549
[54] = system: DU-145
[55] = system: PC-3
[56] = system: EKVX
[57] = system: K562
[58] = system: A549
[59] = system: MDA-MB-435

## O=C(NCCNCCNC(=O)c1cc(-c2ccccc2)nc2ccccc12)c1cc(-c2ccccc2)nc2ccccc12
[1]
  GI50: 2.64 µM (inactive)
[2]
  GI50: 2.51 µM (inactive)
[3]
  GI50: 3.21 µM (inactive)
[4]
  GI50: 2.17 µM (inactive)
[5]
  GI50: 1.77 µM (inactive)
[6]
  GI50: 1.91 µM (inactive)
[7]
  GI50: 2.08 µM (inactive)
[8]
  GI50: 1.77 µM (inactive)
[9]
  GI50: 2.37 µM (inactive)
[10]
  GI50: 1.76 µM (inactive)
[11]
  GI50: 2 µM (inactive)
[12]
  GI50: 1.67 µM (inactive)
[13]
  GI50: 9.79 µM (inactive)
[14]
  GI50: 1.82 µM (inactive)
[15]
  GI50: 2.72 µM (inactive)
[16]
  GI50: 2.09 µM (inactive)
[17]
  GI50: 1.93 µM (inactive)
[18]
  GI50: 1.78 µM (inactive)
[19]
  GI50: 1.98 µM (inactive)
[20]
  GI50: 1.73 µM (inactive)
[21]
  GI50: 2.73 µM (inactive)
[22]
  GI50: 2.84 µM (inactive)
[23]
  GI50: 2.04 µM (inactive)
[24]
  GI50: 1.92 µM (inactive)
[25]
  GI50: 1.81 µM (inactive)
[26]
  GI50: 2.92 µM
[27]
  GI50: 3.18 µM (inactive)
[28]
  GI50: 2.91 µM (inactive)
[29]
  GI50: 1.7 µM (inactive)
[30]
  GI50: 2 µM (inactive)
[31]
  GI50: 1.69 µM (inactive)
[32]
  GI50: 1.87 µM (inactive)
[33]
  GI50: 1.57 µM (inactive)
[34]
  GI50: 1.69 µM (inactive)
[35]
  GI50: 7.46 µM (inactive)
[36]
  GI50: 1.98 µM (inactive)
[37]
  GI50: 2.52 µM (inactive)
[38]
  GI50: 1.6 µM (inactive)
[39]
  GI50: 2.57 µM (inactive)
[40]
  GI50: 2.24 µM (inactive)
[41]
  GI50: 1.67 µM (inactive)
[42]
  GI50: 1.5 µM (inactive)
[43]
  GI50: 1.82 µM (inactive)
[44]
  GI50: 2.73 µM (inactive)
[45]
  GI50: 2.37 µM (inactive)
[46]
  GI50: 1.75 µM (inactive)
[47]
  GI50: 2.7 µM (inactive)
[48]
  GI50: 2.14 µM (inactive)
[49]
  GI50: 3.77 µM (inactive)
[50]
  GI50: 2.4 µM (inactive)
[51]
  GI50: 1.67 µM (inactive)
[52]
  GI50: 1.92 µM (inactive)
[53]
  GI50: 7.91 µM (inactive)
[54]
  GI50: 2.38 µM (inactive)
[55]
  GI50: 2.75 µM (inactive)
[56]
  GI50: 4.47 µM (inactive)
[57]
  GI50: 2.16 µM (inactive)
[58]
  GI50: 3.37 µM (inactive)
[59]
  GI50: 1.82 µM (inactive)

## Cn1c(=O)n2n(c1=O)Cc1cccc3cccc(c13)C2
[1]
  GI50: 63.8 µM (inactive)
[2]
  GI50: > 100 µM (inactive)
[3]
  GI50: > 100 µM (inactive)
[4]
  GI50: > 100 µM (inactive)
[5]
  GI50: > 100 µM (inactive)
[6]
  GI50: > 100 µM (inactive)
[7]
  GI50: > 100 µM (inactive)
[8]
  GI50: > 100 µM (inactive)
[9]
  GI50: > 100 µM (inactive)
[10]
  GI50: > 100 µM (inactive)
[11]
  GI50: > 100 µM (inactive)
[12]
  GI50: 53.6 µM (inactive)
[13]
  GI50: > 100 µM (inactive)
[14]
  GI50: > 100 µM (inactive)
[15]
  GI50: > 100 µM (inactive)
[16]
  GI50: > 100 µM (inactive)
[17]
  GI50: > 100 µM (inactive)
[18]
  GI50: > 100 µM (inactive)
[19]
  GI50: > 100 µM (inactive)
[20]
  GI50: > 100 µM (inactive)
[21]
  GI50: > 100 µM (inactive)
[22]
  GI50: > 100 µM (inactive)
[23]
  GI50: > 100 µM (inactive)
[24]
  GI50: > 100 µM (inactive)
[25]
  GI50: > 100 µM (inactive)
[26]
  GI50: > 100 µM
[27]
  GI50: > 100 µM (inactive)
[28]
  GI50: > 100 µM (inactive)
[29]
  GI50: > 100 µM (inactive)
[30]
  GI50: > 100 µM (inactive)
[31]
  GI50: > 100 µM (inactive)
[32]
  GI50: 1.82 µM (inactive)
[34]
  GI50: > 100 µM (inactive)
[35]
  GI50: > 100 µM (inactive)
[36]
  GI50: > 100 µM (inactive)
[38]
  GI50: > 100 µM (inactive)
[39]
  GI50: > 100 µM (inactive)
[40]
  GI50: > 100 µM (inactive)
[41]
  GI50: > 100 µM (inactive)
[42]
  GI50: > 100 µM (inactive)
[43]
  GI50: > 100 µM (inactive)
[44]
  GI50: > 100 µM (inactive)
[45]
  GI50: > 100 µM (inactive)
[46]
  GI50: > 100 µM (inactive)
[47]
  GI50: > 100 µM (inactive)
[48]
  GI50: > 100 µM (inactive)
[49]
  GI50: > 100 µM (inactive)
[50]
  GI50: > 100 µM (inactive)
[51]
  GI50: > 100 µM (inactive)
[52]
  GI50: > 100 µM (inactive)
[53]
  GI50: > 100 µM (inactive)
[54]
  GI50: > 100 µM (inactive)
[55]
  GI50: > 100 µM (inactive)
[56]
  GI50: > 100 µM (inactive)
[57]
  GI50: > 100 µM (inactive)
[58]
  GI50: > 100 µM (inactive)
[59]
  GI50: > 100 µM (inactive)

## CCOc1cc2c(NCCCN(CCO)CCO)ncnc2c(OCC)c1OCC
[1]
  GI50: > 100 µM (inactive)
[2]
  GI50: > 93.1 µM (inactive)
[3]
  GI50: > 100 µM (inactive)
[4]
  GI50: > 100 µM (inactive)
[5]
  GI50: > 62.5 µM (inactive)
[6]
  GI50: > 100 µM (inactive)
[7]
  GI50: > 100 µM (inactive)
[8]
  GI50: > 100 µM (inactive)
[9]
  GI50: > 100 µM (inactive)
[10]
  GI50: > 100 µM (inactive)
[11]
  GI50: > 88.5 µM (inactive)
[12]
  GI50: > 82 µM (inactive)
[13]
  GI50: > 100 µM (inactive)
[14]
  GI50: 34.3 µM (inactive)
[15]
  GI50: > 90.4 µM (inactive)
[16]
  GI50: > 100 µM (inactive)
[17]
  GI50: > 100 µM (inactive)
[18]
  GI50: > 100 µM (inactive)
[19]
  GI50: 69.3 µM (inactive)
[20]
  GI50: 22 µM (inactive)
[21]
  GI50: > 100 µM (inactive)
[22]
  GI50: > 100 µM (inactive)
[23]
  GI50: > 100 µM (inactive)
[24]
  GI50: > 74.8 µM (inactive)
[25]
  GI50: > 65.6 µM (inactive)
[26]
  GI50: > 100 µM
[27]
  GI50: > 100 µM (inactive)
[28]
  GI50: 21.7 µM (inactive)
[29]
  GI50: > 100 µM (inactive)
[30]
  GI50: > 100 µM (inactive)
[31]
  GI50: > 100 µM (inactive)
[32]
  GI50: > 89.1 µM (inactive)
[33]
  GI50: > 100 µM (inactive)
[34]
  GI50: > 100 µM (inactive)
[35]
  GI50: > 100 µM (inactive)
[36]
  GI50: > 83.2 µM (inactive)
[37]
  GI50: > 100 µM (inactive)
[38]
  GI50: > 83.2 µM (inactive)
[39]
  GI50: > 100 µM (inactive)
[40]
  GI50: > 100 µM (inactive)
[41]
  GI50: > 100 µM (inactive)
[42]
  GI50: > 100 µM (inactive)
[43]
  GI50: > 87.3 µM (inactive)
[44]
  GI50: 82.2 µM (inactive)
[45]
  GI50: > 87.1 µM (inactive)
[46]
  GI50: > 100 µM (inactive)
[47]
  GI50: > 73.5 µM (inactive)
[48]
  GI50: > 100 µM (inactive)
[49]
  GI50: > 100 µM (inactive)
[50]
  GI50: > 100 µM (inactive)
[51]
  GI50: > 100 µM (inactive)
[52]
  GI50: 55.6 µM (inactive)
[53]
  GI50: > 76.4 µM (inactive)
[54]
  GI50: > 100 µM (inactive)
[55]
  GI50: > 100 µM (inactive)
[56]
  GI50: > 100 µM (inactive)
[57]
  GI50: > 100 µM (inactive)
[58]
  GI50: > 94.4 µM (inactive)
[59]
  GI50: > 100 µM (inactive)
